The values below come from patent publication US20220106564A1, “COMPOSITION AND KIT FOR DIFFERENTIATION OF STEM CELLS INTO NEURAL CREST STEM CELLS, INCLUDING INHIBITOR OF TGF-BETA I RECEPTOR AND BMP INHIBITOR, AND METHOD USING SAME” (CHA UNIVERSITY INDUSTRY-ACADEMIC COOPERATION FOUNDATION, priority 2019, published 2022).

Molecules are shown by their SMILES.

Assay [1] relates to H9 human embryonic stem cells (hESCs). The assay is described as follows: Flow cytometry for P75 (neural crest stem cell marker) in cultured cells. It counts as cell-based. As to conditions: suspension about 3 days + adherent about 4 days (FIG. 3E). The protocol: The obtained colonies were finely chopped and suspension-cultured under conditions of 37° C. and 5% CO2 in an EB medium containing 10 μM of SB431542 (GlaxoSmithKline: GSK) as a TGF-β I receptor inhibitor and 0.5 μM to 1 μM of dorsomorphin homolog 1 (DMH1) (Tocris Bioscience, USA) or dorsomorphin (Tocris Bioscience, […]). EB medium contained DMEM/F12 (Life Technologies), 20%(v/v) Knockout serum replacement (KSR, Invitrogen), lx non-essential amino acids (Invitrogen), 0.1 mM 13-mercaptoethanol (Invitrogen), and lx penicillin/streptomycin (Invitrogen). As a negative control, dimethyl sulfoxide (DMSO) (Sigma-Aldrich) was used instead of the drug. […] To analyze a proportion of cells expressing P75 protein which is a neural crest stem cell (NCSC) marker, or SOX1 which is a neural progenitor cell (NPC) marker, immunostaining was performed using phycoerythrin (PE)-labeled anti-P75 monoclonal antibody (1:50 dilution) (Miltenyi Biotec), and phycoerythrin (PE)-labeled anti-Sox1 monoclonal antibody (1:100 dilution) (BD Biosciences). The immunostained cells were subjected to flow cytometry using a BD FACSCalibur flow cytometer (BD Biosciences, Sparks, Md., USA). The results of flow cytometry are shown in FIGS. 2A and 2B (FIG. 2A: a graph of P75 flow cytometry, FIG. 2B: a graph of SOX1 flow cytometry). Cells suspension-cultured for about 3 days and adherent-cultured for about 4 days were subjected to P75 flow cytometry, as described in Example 1.2, and the results of flow cytometry are shown in FIG. 3E (upper: SB431542 and DMH1, lower: SB431542 and dorsomorphin).

The test system is the same in assay [2]. The experiment in a line: Embryoid body count after suspension culture of H9 hESCs. It counts as cell-based. As to conditions: increasing concentrations of DMH1 in EB medium with 10 μM SB431542; suspension culture about 4 days; p<0.001. As for the experimental part: Colonies obtained by culturing H9 human embryonic stem cells (hESCs) (WiCell Research Institute, Inc. Madison, Wis., U.S.A.) in a culture medium were dissociated into single cells using accutase (Life Technologies). The cells dissociated into single cells were seeded in a culture plate coated with a protein such as vitronectin (VTN) (vitronectin XF, STEMCELL Technologies), […]-521, Thermo Fisher Scientific Inc., Waltham, Mass., USA), fibronectin (Thermo Fisher Scientific Inc.), or MatrigelTM (StemCell Technologies, Inc.). An embryonic stem cell (ESC) culture medium was added to the seeded cells to perform undifferentiation culture. As the ESC culture medium, Essential 8 (E8) medium (StemCell Technologies Inc.), TeSR2 medium (StemCell Technologies Inc), StemMACS (Miltenyi Biotec, Bergisch Gladbach, Germany), etc. was used. […] The number of round-shaped embryoid bodies were counted, and the number of embryoid bodies per unit area (embryoid body/cm^2) according to DMH1 concentrations is shown in FIG. 1D (***: p<0.001).

With `c1cc(-c2cnn3cc(-c4ccc(OCCN5CCCCC5)cc4)cnc23)ccn1` [dorsomorphin, 6-[4-[2-(1-Piperidinyl)pethoxy]phenyl]-3-(4-pyridinyl)-pyrazolo[1,5-a]pyrimidine], in assay [1] (0.5 μM BMP inhibitor in EB medium containing 10 μM SB431542 and dorsomorphin), the “proportion of P75-expressing cells” value is on record as not below 83.2%.

Consider `CC(C)Oc1ccc(-c2cnc3c(-c4ccnc5ccccc45)cnn3c2)cc1` [DMH1, 4-[6-[4-(1-Methylethoxy)phenyl]pyrazolo[1,5-a]pyrimidin-3-yl]-quinoline], for which the “number of embryoid bodies per unit area” value in assay [2] was “significantly decreased”. In addition, the “proportion of P75-expressing cells” value in assay [1] (0.5 μM to 1 μM DMH1 + 10 μM SB431542) was not below 69.8%; in assay [1] (2.5 μM DMH1 + 10 μM SB431542), “about 28.9%”.
